Assay [1] addresses GSK-3β (AA 1-420) (Homo sapiens (Human), UniProt P49841). As to the kind of experiment: GSK-3 inhibition assay (standard coupled enzyme system). It counts as biochemical. As to conditions: 20 μM ATP, 300 μM peptide, 20 nM GSK-3β, 30° C. The method, then: Compounds of the present invention were screened for their ability to inhibit GSK-3β (AA 1-420) activity using a standard coupled enzyme system (Fox et al., Protein Sci. 1998, 7, 2249). Reactions were carried out in a solution containing 100 mM HEPES (pH 7.5), 10 mM MgCl2, 25 mM NaCl, 300 μM NADH, 1 mM DTT and 1.5% DMSO. Final substrate concentrations in the assay were 20 μM ATP (Sigma Chemicals, St Louis, Mo.) and 300 μM peptide (American Peptide, Sunnyvale, Calif.). Reactions were carried out at 30° C. and 20 nM GSK-3β. Final concentrations of the components of the coupled enzyme system were 2.5 mM phosphoenolpyruvate, 300 μM NADH, 30 μg/ml pyruvate kinase and 10 μg/ml lactate dehydrogenase.
An assay stock buffer solution was prepared containing all of the reagents listed above with the exception of ATP and the test compound of the present invention. The assay stock buffer solution (175 μl) was incubated in a 96 well plate with 5 μl of the test compound of the present invention at final concentrations spanning 0.002 μM to 30 μM at 30° C. for 10 min. Typically, a 12-point titration was conducted by preparing serial dilutions (from 10 mM compound stocks) with DMSO of the test compounds of the present invention in daughter plates. The reaction was initiated by the addition of 20 μl of ATP (final concentration 20 μM). Rates of reaction were obtained using a Molecular Devices Spectramax plate reader (Sunnyvale, Calif.) over 10 min at 30° C. The Ki values were determined from the rate data as a function of inhibitor concentration.

Assay [2] has as its system β-catenin dependent TCF/LEF transcriptional activity. Put plainly: β-catenin stabilization protocol (β-lactamase reporter assay in Jurkat cells). As to conditions: Homo sapiens, 460/530 ratio, 50% of the maximum effect, read-out: Beta Catenin IC50. It counts as cell-based. The text has this: GSK-3 phosphorylation of β-catenin targets it to the proteosome for degradation. Inhibition of GSK-3 results in accumulation of β-catenin in the cytosol of cells which through interaction with the transcription factor TCF/LEF translocates to the nucleus and drives the transcription of Wnt-dependent genes. The assay is designed to determine the level of β-catenin dependent TCF/LEF transcriptional activity in a quantitative manner through the use of a β-lactamase reporter assay in Jurkat cells dosed with a compound.
Jurkat β-catenin cells are starved overnight in assay media (1% FBS, 1× Penstrep, RPMI) in the flask. The next day Jurkat β-catenin cells are seeded in 96 well flat bottom plates at a density of 50,000 cells/well in assay media in a volume of 100 ul. The compound is added to the well at a final DMSO concentration of 0.75% and incubated at 37° C. o/n. The next day, 20 uL of 6× CCF4 dye is added to the wells and incubated at room temperature for 1-2 hours. Plates are read on the Cytofluor 4000 series multiwell plate reader and the 460/530 ratio is determined.

Assay [3] deals with GSK3β TYR 216 (Homo sapiens (Human), UniProt P49841). Put plainly: GSK3β p-TYR inhibition assay (western blotting of Jurkat cells). As to conditions: compound incubated o/n, western blot, read-out: GSK3b pTYR 216: IC50. The assay is classed as cell-based. As for the experimental part:
(§1) Compounds are screened for their ability to inhibit the phosphorylation of tyrosine (TYR) residues through the use of western blotting of Jurkat cells dosed with the compounds. The phosphorylation of the specific TYR residues tested are GSK3α TYR 279 and GSK3β TYR 216.
(§2) Jurkat cells are seeded at a density of 2×10^5 cells/well in a 12 well dish in starvation media (RPMI+1% FBS+P/S). Following starvation for 16 hours, the compound is dosed into each well at a final DMSO concentration of 0.3% and cells are incubated o/n at 37° C. 5% CO2. The next day, cells are spun down at 1500 rpm, washed with PBS, and lysed in 100 uL Laemli sample buffer with β-mercaptoethanol.
(§3) 15 microliters (uL) of cell lysates are loaded onto a 10% tris-glycine gel and run at 120 v for 2 hours or until dye front runs off of the gel. The protein is then transferred onto a PVDF membrane at 100 v for 60 min. PBST (PBS containing 0.1% Tween 20, such as 1 ml Tween per 1 L of PBS) is then made up and used for all washes and antibody incubations. The blot is blocked in 5% nonfat milk PBST for one hour.
(§4) The primary antibody (GSK-3α/β pTYR 279/216 at 1:1000 dilution Upstate cat #05-413) is then added in 5%-nonfat milk PBST overnight at 4° C. with gentle rocking. The blot is then washed in PBST for 5 min. This is then repeated 4 times. A secondary anti-mouse-HRP conjugated antibody (1:5000 dilution) is added for 60 min in 5% milk PBST. The blot is then washed in PBST for 5 min. This is also repeated 4 times. 3.0 mL of the developing solution (ECL plus Western Blotting Detection System from Amersham/GE cat # RPN2132) is made and then added. The solution is swirled over the blot for ˜30 sec. The blot is then developed using CL-Xposure clear blue X-ray film. GAPDH expression level is used as a loading control, (GAPDH antibody: santa cruz 25-778) at 1:10000 dilution.
(§5) For determination of GSK-3α and GSK-3β pTYR IC50, the density of the respective bands for each protein at specific compound concentration is compared to a no compound DMSO treated control cell sample present on each exposure.
For orientation: Immunoblotting shows a protein as a band on a membrane.

In assay [4] the target is GSK3α TYR 279 (Homo sapiens (Human), UniProt P49840). As to the kind of experiment: GSK-3α p-TYR inhibition assay (western blotting of Jurkat cells). The assay is classed as cell-based. As to conditions: compound incubated o/n, western blot, read-out: GSK3a pTYR 279: IC50. The method, then: as §1, §2, §3, §4, §5
The test system of assay [5] is amyloid-β peptides. As to conditions: mice over-expressing APP, treated over a three-week period; cited from earlier work.
The subject of assay [6] is infarct size in rat brains. The settings on record: after transient MCAO in rats; cited from earlier work.

GSK3α TYR 279, sequence (P49840 whole entry): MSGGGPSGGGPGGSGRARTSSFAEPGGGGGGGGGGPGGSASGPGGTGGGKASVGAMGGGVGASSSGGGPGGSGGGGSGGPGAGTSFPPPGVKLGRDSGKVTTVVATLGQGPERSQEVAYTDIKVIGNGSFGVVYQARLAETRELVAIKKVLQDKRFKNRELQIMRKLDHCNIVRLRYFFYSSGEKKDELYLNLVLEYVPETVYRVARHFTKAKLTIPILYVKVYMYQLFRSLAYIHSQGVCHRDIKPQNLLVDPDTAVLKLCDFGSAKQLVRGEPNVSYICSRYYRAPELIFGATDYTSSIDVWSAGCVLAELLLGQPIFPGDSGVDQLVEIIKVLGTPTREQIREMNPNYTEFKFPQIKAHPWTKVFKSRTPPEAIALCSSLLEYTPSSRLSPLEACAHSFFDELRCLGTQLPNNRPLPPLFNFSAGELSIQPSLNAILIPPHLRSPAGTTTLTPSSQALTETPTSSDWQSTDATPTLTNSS
GSK3β TYR 216, sequence (P49841 whole entry): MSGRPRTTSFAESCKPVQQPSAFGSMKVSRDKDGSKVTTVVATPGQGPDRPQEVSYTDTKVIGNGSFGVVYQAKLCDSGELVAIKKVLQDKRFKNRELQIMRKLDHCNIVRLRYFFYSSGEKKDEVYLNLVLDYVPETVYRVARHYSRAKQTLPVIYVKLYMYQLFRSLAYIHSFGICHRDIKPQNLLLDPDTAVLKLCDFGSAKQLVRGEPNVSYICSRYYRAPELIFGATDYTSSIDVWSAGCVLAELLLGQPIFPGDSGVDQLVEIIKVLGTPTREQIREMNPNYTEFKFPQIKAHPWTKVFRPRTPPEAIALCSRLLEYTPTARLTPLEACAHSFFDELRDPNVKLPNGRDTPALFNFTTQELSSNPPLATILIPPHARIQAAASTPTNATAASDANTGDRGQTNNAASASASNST
GSK-3β (AA 1-420), sequence (P49841 whole entry, species assumed, the tested form may be a part): as the sequence (P49841 whole entry) above

In general, Ki refers to the equilibrium dissociation constant of an inhibitor or competing ligand from its target. A high value points to weaker binding. Regarding `Fc1cnc2[nH]nc(Nc3cc(Cl)nc(C4CCCCC4)n3)c2c1` [Compound I-1], the Ki in assay [1] was less than 25 nM.

`CN1CCN(c2cc(Nc3n[nH]c4ccc(F)cc34)nc(C3CCCCC3)n2)CC1` [Compound I-2]: the Ki in assay [1] fell in the range of 25 to 500 nM.

What is called IC50 is the concentration that gives 50% inhibition. In the case of `Cc1nc(C2CCCCC2)nc(Nc2n[nH]c3ncc(F)cc23)c1C` [Compound I-3], the IC50 in assay [2] turned out to be 3700 nM; in assay [3] it was 13 nM; in assay [4], 0.7 nM. Also, in assay [1], the Ki is less than 25 nM.

For `Cc1nc(Nc2n[nH]c3ncc(F)cc23)cc(C2CCC(F)(F)CC2)n1` [Compound I-4], the IC50 in assay [2] was 210 nM; in assay [3], 20 nM; in assay [4] it was 1 nM. This compound registered a Ki in assay [1] of less than 25 nM.

For `Cc1nc(C2CCOCC2)nc(Nc2n[nH]c3ncc(F)cc23)c1C` [Compound I-5], the results for the IC50 in assay [2], in assay [3] and in assay [4] were greater than 10000 nM, 800 nM and 30 nM, respectively.

For the compound `Cc1cc(Nc2n[nH]c3ncc(F)cc23)nc(C2CCCCCC2)n1` [Compound I-8], the figures for the IC50 in assay [2], in assay [3] and in assay [4] were 600 nM, 10 nM and 0.3 nM, respectively.

In the case of `Cc1cc(Nc2n[nH]c3ncc(F)cc23)nc(C2CCCC2)n1` [Compound I-9], the IC50 in assay [2] was found to be 1400 nM; in assay [3], 48 nM; in assay [4], 2 nM.

With `Cc1cc(Nc2n[nH]c3ncc(F)cc23)nc(C2CCCCC2)n1` [Compound I-10], the IC50 in assay [2] worked out at 400 nM; in assay [3], 6 nM; in assay [4], 0.5 nM.

In the case of `Cc1cc(Nc2n[nH]c3ccc(F)cc23)nc(C2CCCC2)n1` [Compound I-14], in assay [1], the Ki was less than 25 nM.

Consider `Cc1cc(Nc2n[nH]c3ccc(F)cc23)nc(C2CCOCC2)n1` [Compound I-15], for which the concentration for half-maximal inhibition (IC50) turned out to be 4830 nM in assay [2], 200 nM in assay [3] and 30 nM in assay [4]. Besides, the Ki in assay [1] lay within 25 to 500 nM.

Turning to `Cc1cc(Nc2n[nH]c3ncc(F)cc23)nc(C2CCOCC2)n1` [Compound I-17], the values for the IC50 in assay [2], in assay [3] and in assay [4] were 110 nM, 30 nM and 3 nM, respectively.

Turning to `Cc1cc(Nc2n[nH]c3ncc(F)cc23)nc([C@H]2CCCC[C@@H]2C)n1` [Compound I-18], the IC50 in assay [2] amounted to 2400 nM; in assay [3], 300 nM; in assay [4] it was 1 nM.

As to `Cc1cc(Nc2n[nH]c3ncc(F)cc23)nc(C2CC2)n1` [Compound I-20], in assay [1], the Ki is 25 to 500 nM.

On to `CC(C)(O)c1cc(Nc2n[nH]c3ncc(F)cc23)nc(C2CCCCC2)n1` [Compound I-21], for which the IC50 in assay [2] was found to be 1000 nM; in assay [3], 20 nM; in assay [4], 3 nM.

With `Cc1cc(Nc2n[nH]c3ccc(F)cc23)nc(C2CCCCC2)n1` [Compound I-23], the IC50 in assay [2] came out at 1100 nM; in assay [3], 25 nM; in assay [4] it was 2 nM.

On to `[Li]` [lithium], for which the “decrease in amyloid-β peptide tissue levels” value in assay [5] is reported as greater than 50%.

In the case of “IGF-1: insulin growth factor-1, a known GSK-3 inhibitor”, the “infarct size in rat brains” value in assay [6] is “reduced infarct size”.

The record behind these values is patent publication US8664219B2, “Aminopyrimidines useful as inhibitors of protein kinases” (Vertex Pharmaceuticals Incorporated, priority 2007, dated 2014).
